Source: US20230120564A1, “PYRIDO[3,4-D]PYRIMIDINE DERIVATIVE AND THERAPEUTIC PHARMACEUTIC COMPOSITION COMPRISING SAME” (KOREA INSTITUTE OF SCIENCE AND TECHNOLOGY, priority 2020, published 2023)

Tests used:
P38b/MAPK11 = P38b/MAPK11 (Homo sapiens, UniProt Q15759); assay: full kinase panel biochemical assay; conditions: single concentration of 1 μM; read-out: percent inhibition of P38b/MAPK11
How it was run: (§1)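 Biochemical panel assay, one dose (1 μM) per kinase. Output given as % inhibition of enzyme activity.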

EPHA5 = EPHA5 (Homo sapiens, UniProt P54756); assay: full kinase panel biochemical assay; conditions: single concentration of 1 μM; read-out: percent inhibition of EPHA5
How it was run: as §1

RIPK4 = RIPK4 (Homo sapiens, UniProt P57078); assay: full kinase panel biochemical assay; conditions: single concentration of 1 μM; read-out: percent inhibition of RIPK4
How it was run: as §1

EPHB3 = EPHB3 (Homo sapiens, UniProt P54753); assay: full kinase panel biochemical assay; conditions: single concentration of 1 μM; read-out: percent inhibition of EPHB3
How it was run: as §1

GCK = molecular target: T1, GCK (Homo sapiens, UniProt Q12851); assay: Kinase inhibitory activity, IC50; type: biochemical
T1 sequence (Q12851 1-820): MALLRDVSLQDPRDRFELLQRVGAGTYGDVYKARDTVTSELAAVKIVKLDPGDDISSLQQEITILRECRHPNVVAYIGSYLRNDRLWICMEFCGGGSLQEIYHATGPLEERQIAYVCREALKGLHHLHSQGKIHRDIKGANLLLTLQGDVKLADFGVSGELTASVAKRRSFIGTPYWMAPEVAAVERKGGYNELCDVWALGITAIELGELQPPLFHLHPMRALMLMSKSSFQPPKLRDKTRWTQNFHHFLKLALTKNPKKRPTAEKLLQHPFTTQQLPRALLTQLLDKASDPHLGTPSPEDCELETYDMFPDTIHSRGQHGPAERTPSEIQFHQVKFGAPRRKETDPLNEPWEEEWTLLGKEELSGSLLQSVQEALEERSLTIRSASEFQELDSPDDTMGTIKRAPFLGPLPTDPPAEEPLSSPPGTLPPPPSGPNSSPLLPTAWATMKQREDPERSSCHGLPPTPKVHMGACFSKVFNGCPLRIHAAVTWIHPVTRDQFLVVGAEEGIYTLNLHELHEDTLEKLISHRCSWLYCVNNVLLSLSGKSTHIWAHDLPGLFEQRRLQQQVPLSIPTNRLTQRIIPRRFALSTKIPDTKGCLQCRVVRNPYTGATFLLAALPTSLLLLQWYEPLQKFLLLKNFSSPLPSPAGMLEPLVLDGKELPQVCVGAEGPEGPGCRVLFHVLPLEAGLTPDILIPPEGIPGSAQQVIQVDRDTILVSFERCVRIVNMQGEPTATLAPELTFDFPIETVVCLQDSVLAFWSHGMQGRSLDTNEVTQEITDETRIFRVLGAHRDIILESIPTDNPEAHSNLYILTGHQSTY
Protocol: (§2) The inhibitory activities of the compounds of the present invention against two kinases, GCK and ACK1, were measured, and the IC50 values thereof were calculated. As a control, the following compound GNF7 was used.

ACK1 = ACK1 (Homo sapiens, UniProt Q07912); assay: Kinase inhibitory activity, IC50; type: biochemical
Protocol: as §2

Chain of P38b/MAPK11 (Q15759 whole entry): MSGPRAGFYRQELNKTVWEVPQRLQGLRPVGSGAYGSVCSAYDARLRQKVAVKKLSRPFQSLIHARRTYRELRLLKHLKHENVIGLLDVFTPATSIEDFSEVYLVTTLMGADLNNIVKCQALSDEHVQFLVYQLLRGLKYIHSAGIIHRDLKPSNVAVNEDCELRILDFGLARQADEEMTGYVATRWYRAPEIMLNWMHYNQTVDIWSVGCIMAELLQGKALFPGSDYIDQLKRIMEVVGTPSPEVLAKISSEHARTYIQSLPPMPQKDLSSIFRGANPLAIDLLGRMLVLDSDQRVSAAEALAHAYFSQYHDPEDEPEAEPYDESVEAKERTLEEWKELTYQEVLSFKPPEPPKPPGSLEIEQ
Chain of EPHA5 (P54756 25-1037): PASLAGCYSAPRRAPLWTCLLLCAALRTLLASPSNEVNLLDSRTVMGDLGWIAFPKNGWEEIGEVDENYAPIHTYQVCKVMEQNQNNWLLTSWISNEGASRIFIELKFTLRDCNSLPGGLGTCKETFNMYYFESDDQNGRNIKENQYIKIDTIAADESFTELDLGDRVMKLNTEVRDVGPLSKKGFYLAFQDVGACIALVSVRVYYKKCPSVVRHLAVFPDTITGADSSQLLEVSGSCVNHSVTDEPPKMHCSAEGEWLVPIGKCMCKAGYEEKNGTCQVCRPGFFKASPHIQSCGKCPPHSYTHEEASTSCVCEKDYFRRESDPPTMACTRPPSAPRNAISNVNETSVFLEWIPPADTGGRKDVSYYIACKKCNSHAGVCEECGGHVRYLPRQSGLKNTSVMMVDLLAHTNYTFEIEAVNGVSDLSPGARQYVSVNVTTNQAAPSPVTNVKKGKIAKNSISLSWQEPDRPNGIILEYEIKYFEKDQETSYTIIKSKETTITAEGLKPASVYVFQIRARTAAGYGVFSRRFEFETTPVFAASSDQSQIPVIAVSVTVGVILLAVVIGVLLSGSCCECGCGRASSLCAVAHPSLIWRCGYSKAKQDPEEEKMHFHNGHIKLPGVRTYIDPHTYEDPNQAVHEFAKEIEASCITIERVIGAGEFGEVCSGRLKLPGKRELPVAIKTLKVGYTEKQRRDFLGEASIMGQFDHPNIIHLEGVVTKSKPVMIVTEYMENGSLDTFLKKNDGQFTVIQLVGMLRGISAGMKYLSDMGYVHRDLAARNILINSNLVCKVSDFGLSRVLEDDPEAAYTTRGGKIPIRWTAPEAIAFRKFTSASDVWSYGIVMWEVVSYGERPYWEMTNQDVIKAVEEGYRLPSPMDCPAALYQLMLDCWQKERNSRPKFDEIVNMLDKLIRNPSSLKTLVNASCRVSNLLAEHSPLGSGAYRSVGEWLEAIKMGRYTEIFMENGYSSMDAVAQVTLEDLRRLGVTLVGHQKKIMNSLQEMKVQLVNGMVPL
Chain of ACK1 (Q07912 whole entry): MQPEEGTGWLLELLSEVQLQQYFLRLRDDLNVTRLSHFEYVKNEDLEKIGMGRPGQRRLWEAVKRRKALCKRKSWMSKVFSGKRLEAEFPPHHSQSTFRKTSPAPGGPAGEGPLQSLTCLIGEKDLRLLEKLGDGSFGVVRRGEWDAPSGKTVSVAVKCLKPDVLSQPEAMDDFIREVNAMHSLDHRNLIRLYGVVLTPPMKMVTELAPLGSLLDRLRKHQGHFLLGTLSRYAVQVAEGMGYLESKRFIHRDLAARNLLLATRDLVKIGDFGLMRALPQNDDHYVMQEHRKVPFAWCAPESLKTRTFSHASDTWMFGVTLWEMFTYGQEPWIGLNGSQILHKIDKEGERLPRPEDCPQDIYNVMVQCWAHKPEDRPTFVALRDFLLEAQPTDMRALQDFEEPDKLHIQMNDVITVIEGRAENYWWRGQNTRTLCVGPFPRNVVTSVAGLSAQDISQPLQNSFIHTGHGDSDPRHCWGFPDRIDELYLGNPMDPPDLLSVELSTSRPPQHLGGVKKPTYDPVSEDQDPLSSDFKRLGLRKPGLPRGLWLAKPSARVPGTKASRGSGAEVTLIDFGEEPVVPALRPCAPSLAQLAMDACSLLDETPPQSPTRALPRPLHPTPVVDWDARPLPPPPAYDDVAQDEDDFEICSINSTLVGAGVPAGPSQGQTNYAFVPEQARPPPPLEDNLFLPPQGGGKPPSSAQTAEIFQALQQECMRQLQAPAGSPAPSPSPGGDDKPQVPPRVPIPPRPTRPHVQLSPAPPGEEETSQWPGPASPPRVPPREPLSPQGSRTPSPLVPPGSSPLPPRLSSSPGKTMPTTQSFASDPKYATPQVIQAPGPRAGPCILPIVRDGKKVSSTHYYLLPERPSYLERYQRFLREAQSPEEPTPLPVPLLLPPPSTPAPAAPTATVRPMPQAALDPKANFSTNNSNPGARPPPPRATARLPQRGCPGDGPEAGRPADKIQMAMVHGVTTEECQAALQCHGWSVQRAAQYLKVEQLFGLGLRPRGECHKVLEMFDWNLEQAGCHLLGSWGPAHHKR
Chain of RIPK4 (P57078 whole entry): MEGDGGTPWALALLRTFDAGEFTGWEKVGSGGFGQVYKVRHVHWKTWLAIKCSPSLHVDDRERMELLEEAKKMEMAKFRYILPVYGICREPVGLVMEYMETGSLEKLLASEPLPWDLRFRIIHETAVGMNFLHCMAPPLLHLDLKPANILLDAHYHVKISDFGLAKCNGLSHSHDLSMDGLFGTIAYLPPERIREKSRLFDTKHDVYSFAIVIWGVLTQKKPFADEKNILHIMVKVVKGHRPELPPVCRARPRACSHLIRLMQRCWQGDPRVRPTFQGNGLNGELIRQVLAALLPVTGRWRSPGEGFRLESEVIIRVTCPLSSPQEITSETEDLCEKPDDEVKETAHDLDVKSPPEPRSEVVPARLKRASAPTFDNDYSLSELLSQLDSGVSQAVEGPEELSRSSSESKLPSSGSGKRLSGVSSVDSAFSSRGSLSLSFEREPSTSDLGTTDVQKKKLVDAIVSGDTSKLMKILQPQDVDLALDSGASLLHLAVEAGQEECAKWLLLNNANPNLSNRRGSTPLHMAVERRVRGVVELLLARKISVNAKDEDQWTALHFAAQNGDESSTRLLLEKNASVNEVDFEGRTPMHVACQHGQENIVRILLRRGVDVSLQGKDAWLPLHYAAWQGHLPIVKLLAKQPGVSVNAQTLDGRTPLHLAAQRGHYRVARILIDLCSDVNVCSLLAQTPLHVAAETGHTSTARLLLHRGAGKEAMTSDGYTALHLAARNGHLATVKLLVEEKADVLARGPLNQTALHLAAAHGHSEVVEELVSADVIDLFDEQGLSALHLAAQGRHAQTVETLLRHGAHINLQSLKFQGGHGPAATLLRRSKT
Chain of EPHB3 (P54753 34-998): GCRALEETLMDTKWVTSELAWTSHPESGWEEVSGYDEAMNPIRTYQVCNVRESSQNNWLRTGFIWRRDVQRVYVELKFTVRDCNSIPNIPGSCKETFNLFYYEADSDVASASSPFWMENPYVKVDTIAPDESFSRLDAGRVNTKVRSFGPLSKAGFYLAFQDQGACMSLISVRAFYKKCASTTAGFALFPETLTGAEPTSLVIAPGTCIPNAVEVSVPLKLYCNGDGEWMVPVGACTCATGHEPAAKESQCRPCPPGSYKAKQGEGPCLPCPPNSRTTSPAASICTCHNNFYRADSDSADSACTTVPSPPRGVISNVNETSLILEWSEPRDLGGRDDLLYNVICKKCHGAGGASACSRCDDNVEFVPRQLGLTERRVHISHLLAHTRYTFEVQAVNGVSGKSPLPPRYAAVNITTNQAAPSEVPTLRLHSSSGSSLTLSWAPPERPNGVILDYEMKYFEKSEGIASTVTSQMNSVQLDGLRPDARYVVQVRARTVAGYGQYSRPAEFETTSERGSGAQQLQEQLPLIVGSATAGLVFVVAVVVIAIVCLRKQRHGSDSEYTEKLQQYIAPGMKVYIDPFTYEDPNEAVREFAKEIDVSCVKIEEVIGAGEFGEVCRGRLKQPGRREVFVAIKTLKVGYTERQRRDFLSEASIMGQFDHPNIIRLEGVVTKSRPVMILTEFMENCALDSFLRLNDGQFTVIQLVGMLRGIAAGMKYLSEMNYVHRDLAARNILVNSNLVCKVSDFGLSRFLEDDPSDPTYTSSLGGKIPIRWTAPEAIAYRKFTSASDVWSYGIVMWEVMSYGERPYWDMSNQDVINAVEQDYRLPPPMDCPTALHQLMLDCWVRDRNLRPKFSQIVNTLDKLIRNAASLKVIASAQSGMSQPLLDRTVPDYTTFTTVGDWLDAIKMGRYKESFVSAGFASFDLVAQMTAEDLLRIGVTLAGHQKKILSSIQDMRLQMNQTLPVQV

With `Cc1ccc(Nc2ncc3cc(-c4cc(NC(=O)c5cccc(C(F)(F)F)c5)ccc4C)ncc3n2)cn1` [Compound No. 4, N-(4-methyl-3-(2-((6-methylpyridin-3-yl)amino)pyrido[3,4-d]pyrimidin-6-yl)phenyl)-3-(trifluoromethyl)benzamide] the inhibition at 1 µM (P38b/MAPK11) was at least 70%, the inhibition at 1 µM (EPHA5) was at least 70% and the inhibition at 1 µM (RIPK4) was at least 70%. The inhibition at 1 µM (EPHB3) was at least 70%, the IC50 (GCK) was 0.1 to 1 µM and the IC50 (ACK1) was under 0.1 µM.
